Where a SMILES comes first, the peptide text is derived from it. Bridges are numbered along the chain shown (N, C = ends). [ ]: non-standard residue; d: D form. The star is where a group is joined. Threoninol(2S,3R) = C[C@@H](O)[C@H](CO)N*
Legend:
[1] = DRUGMATRIX: Atrial Natriuretic Factor (ANF) radioligand binding (ligand: [125I] ANF (rat)); assay type: cell membranes, Cavia porcellus, Dunkin-Hartley, Adrenal gland, Membrane; settings: Not Active = under 50% inhibition at 10 µM
[2] = DRUGMATRIX: Calcium Channel Type L, Phenylalkylamine radioligand binding (ligand: [3H] (-)-Desmethoxyverapamil (D-888)); assay type: cell membranes, Rattus norvegicus, Wistar, Brain, Membrane; settings: Not Active = under 50% inhibition at 10 µM
[3] = DRUGMATRIX: Imidazoline I2, Central radioligand binding (ligand: [3H] Idazoxan); assay type: cell membranes, Rattus norvegicus, Wistar, Cerebral cortex, Membrane; settings: Not Active = under 50% inhibition at 10 µM
Melanocortin receptor 5 = Melanocortin receptor 5 (Homo sapiens, UniProt P33032); assay type: cell membranes, Membrane; settings: hek293; further: in other assays of this panel Not Active means under 50% inhibition at 10 µM
Chain of Melanocortin receptor 5 (P33032 whole entry): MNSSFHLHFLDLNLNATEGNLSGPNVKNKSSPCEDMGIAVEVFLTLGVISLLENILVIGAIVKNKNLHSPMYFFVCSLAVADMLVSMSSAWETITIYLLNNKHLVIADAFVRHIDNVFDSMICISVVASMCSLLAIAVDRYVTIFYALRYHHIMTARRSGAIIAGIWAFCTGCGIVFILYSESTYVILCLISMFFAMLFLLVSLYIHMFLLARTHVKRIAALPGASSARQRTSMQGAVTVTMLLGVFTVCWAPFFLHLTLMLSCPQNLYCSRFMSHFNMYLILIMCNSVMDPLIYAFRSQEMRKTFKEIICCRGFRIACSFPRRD

[4] = target: Mitogen-activated protein kinase 1 (Homo sapiens, UniProt P28482); assay: DRUGMATRIX: Protein Serine/Threonine Kinase, ERK2 enzyme inhibition (substrate: Myelin Basic Protein); design: species or system Escherichia coli; settings: Not Active = under 50% inhibition at 10 µM
Chain of Mitogen-activated protein kinase 1 (P28482 whole entry): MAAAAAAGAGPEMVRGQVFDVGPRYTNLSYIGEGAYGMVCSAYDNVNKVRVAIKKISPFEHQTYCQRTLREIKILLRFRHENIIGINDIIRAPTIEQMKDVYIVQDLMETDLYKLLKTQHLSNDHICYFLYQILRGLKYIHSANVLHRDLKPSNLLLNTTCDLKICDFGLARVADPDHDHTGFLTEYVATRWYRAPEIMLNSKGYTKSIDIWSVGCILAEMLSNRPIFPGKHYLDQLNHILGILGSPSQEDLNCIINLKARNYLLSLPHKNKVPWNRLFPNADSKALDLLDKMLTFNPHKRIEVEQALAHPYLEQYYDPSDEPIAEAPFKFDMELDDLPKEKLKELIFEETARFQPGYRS

[5] = target: T1, 5-hydroxytryptamine receptor 1A (Rattus norvegicus, UniProt P19327); assay type: cell membranes, Membrane; settings: cho-k1; further: in other assays of this panel Not Active means under 50% inhibition at 10 µM
T1 sequence (P19327 whole entry): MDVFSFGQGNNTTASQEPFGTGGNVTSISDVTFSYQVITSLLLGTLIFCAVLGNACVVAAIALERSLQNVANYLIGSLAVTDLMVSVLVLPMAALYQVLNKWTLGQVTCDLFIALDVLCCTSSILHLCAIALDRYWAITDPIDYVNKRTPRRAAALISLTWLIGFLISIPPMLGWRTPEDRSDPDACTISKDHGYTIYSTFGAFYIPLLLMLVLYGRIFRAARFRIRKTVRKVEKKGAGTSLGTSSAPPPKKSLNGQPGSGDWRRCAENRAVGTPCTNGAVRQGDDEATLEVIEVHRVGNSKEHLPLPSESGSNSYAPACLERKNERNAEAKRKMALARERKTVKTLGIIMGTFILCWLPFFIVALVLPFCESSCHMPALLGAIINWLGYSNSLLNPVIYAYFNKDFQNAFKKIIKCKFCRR

Cytochrome P450 2E1 = Cytochrome P450 2E1 (Homo sapiens, UniProt P05181); settings: bti-tn-5b1-4; further: in other assays of this panel Not Active means under 50% inhibition at 10 µM
Chain of Cytochrome P450 2E1 (P05181 whole entry): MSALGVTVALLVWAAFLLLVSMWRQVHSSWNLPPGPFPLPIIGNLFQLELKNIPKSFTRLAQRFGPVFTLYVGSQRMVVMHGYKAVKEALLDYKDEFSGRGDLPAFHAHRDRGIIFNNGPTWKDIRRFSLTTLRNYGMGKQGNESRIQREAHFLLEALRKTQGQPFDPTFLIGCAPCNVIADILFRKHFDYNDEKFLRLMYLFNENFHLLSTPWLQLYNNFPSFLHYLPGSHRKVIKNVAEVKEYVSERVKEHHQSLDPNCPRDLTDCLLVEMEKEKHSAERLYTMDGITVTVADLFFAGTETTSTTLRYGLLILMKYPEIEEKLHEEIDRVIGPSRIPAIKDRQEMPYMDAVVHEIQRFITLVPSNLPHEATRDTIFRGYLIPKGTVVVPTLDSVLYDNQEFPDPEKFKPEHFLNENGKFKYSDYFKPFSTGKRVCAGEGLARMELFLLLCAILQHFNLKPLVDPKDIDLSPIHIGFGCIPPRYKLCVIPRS

| SMILES | IC50 [1] | Ki [1] | IC50 [2] | Ki [2] | IC50 [3] | Ki [3] | IC50 (Melanocortin receptor 5) | IC50 [4] | IC50 [5] | IC50 (Cytochrome P450 2E1) | Ki (Cytochrome P450 2E1) | IC50 ([4]; read-out: IC50) [nM] | Ki (Melanocortin receptor 5) | Ki [4] | Ki [5] |
| --- | --- | --- | --- | --- | --- | --- | --- | --- | --- | --- | --- | --- | --- | --- | --- |
| CC(=O)Nc1cccc(O)c1 [METACETAMOL] | Not Active | Not Active | Not Active | Not Active | Not Active | Not Active | Not Active | Not Active | Not Active | Not Active | Not Active |  |  |  |  |
| NC(=O)c1cnccn1 [PYRAZINAMIDE] | Not Active | Not Active | Not Active | Not Active | Not Active | Not Active | Not Active | Not Active | Not Active | Not Active | Not Active |  |  |  |  |
| CC[C@@H](CO)NCCN[C@@H](CC)CO [ETHAMBUTOL] | Not Active | Not Active | Not Active | Not Active | Not Active | Not Active | Not Active | Not Active | Not Active | Not Active | Not Active |  |  |  |  |
| CC(C)(Oc1ccc(C2CCCc3ccccc32)cc1)C(=O)O (configuration not stated) [NAFENOPIN] | Not Active | Not Active | Not Active | Not Active | Not Active | Not Active | Not Active |  | Not Active | Not Active | Not Active | 815 |  |  |  |
| CCN(CC)CCOC(=O)c1ccc(N)cc1 [PROCAINE] | Not Active | Not Active | Not Active | Not Active | Not Active | Not Active | Not Active | Not Active | Not Active | Not Active | Not Active |  |  |  |  |
| CCCC(CCC)C(=O)O [VALPROIC ACID] | Not Active | Not Active | Not Active | Not Active | Not Active | Not Active | Not Active | Not Active | Not Active | Not Active | Not Active |  |  |  |  |
| S=C=Nc1cccc2ccccc12 [1-NAPHTHYLISOTHIOCYANATE] | Not Active | Not Active | Not Active | Not Active | Not Active | Not Active | Not Active | Not Active | Not Active | Not Active | Not Active |  |  |  |  |
| Cc1ccccc1C(=O)N1CCC(Cc2ccccc2)CC1 | Not Active | Not Active | Not Active | Not Active | Not Active | Not Active | Not Active | Not Active | Not Active | Not Active | Not Active |  |  |  |  |
| C[C@@H](O)[C@H](CO)NC(=O)[C@@H]1CSSC[C@H](NC(=O)[C@H](N)Cc2ccccc2)C(=O)N[C@@H](Cc2ccccc2)C(=O)N[C@H](Cc2c[nH]c3ccccc23)C(=O)N[C@@H](CCCCN)C(=O)N[C@@H]([C@@H](C)O)C(=O)N1 (H-[dF]CF[dW]KTC-{Threoninol(2S,3R)}; disulfide 2-7) | Not Active | Not Active | Not Active | Not Active | Not Active | Not Active | Not Active | Not Active | Not Active | Not Active | Not Active |  |  |  |  |
| Cc1nccn1CC1CCc2c(c3ccccc3n2C)C1=O (configuration not stated) [ONDANSETRON] | Not Active | Not Active | Not Active | Not Active | Not Active | Not Active | Not Active | Not Active | Not Active | Not Active | Not Active |  |  |  |  |
| C#C[C@]1(O)CC[C@H]2[C@@H]3CCc4cc(OC)ccc4[C@H]3CC[C@@]21C [MESTRANOL] | Not Active | Not Active | Not Active | Not Active | Not Active | Not Active | Not Active | Not Active | Not Active | Not Active | Not Active |  |  |  |  |
| COc1cc2c(c3oc(=O)c4c(c13)CCC4=O)[C@@H]1C=CO[C@@H]1O2 [AFLATOXIN] | Not Active | Not Active | Not Active | Not Active | Not Active | Not Active | Not Active | Not Active | Not Active | Not Active | Not Active |  | Not Active | Not Active | Not Active |
| CC1(C)O[C@@H]2C[C@H]3[C@@H]4C[C@H](F)C5=CC(=O)CC[C@]5(C)[C@H]4[C@@H](O)C[C@]3(C)[C@]2(C(=O)CO)O1 [FLURANDRENOLIDE] | Not Active | Not Active | Not Active | Not Active | Not Active | Not Active | Not Active | Not Active | Not Active | Not Active | Not Active |  |  |  |  |
| CC1(C)O[C@@H]2C[C@H]3[C@@H]4C[C@H](F)C5=CC(=O)C=C[C@]5(C)[C@@]4(F)[C@@H](O)C[C@]3(C)[C@]2(C(=O)CO)O1 [FLUOCINOLONE ACETONIDE] | Not Active | Not Active | Not Active | Not Active | Not Active | Not Active | Not Active | Not Active | Not Active | Not Active | Not Active |  |  |  |  |
| CC(C(=O)O)c1cccc(C(=O)c2ccccc2)c1 (configuration not stated) [KETOPROFEN] | Not Active | Not Active | Not Active | Not Active | Not Active | Not Active | Not Active | Not Active | Not Active | Not Active | Not Active |  |  |  |  |
| O=c1ccc2ccccc2o1 [COUMARIN] | Not Active | Not Active | Not Active | Not Active | Not Active | Not Active | Not Active | Not Active | Not Active | Not Active | Not Active |  |  |  |  |
| CN1C(=O)COc2c(C(=O)NC3CN4CCC3CC4)cc(Cl)cc21 (configuration not stated) [AZASETRON] | Not Active | Not Active | Not Active | Not Active | Not Active | Not Active | Not Active | Not Active | Not Active | Not Active | Not Active |  |  |  |  |
| C[C@H]1C[C@H]2[C@@H]3CCC4=CC(=O)C=C[C@]4(C)[C@@]3(Cl)[C@@H](O)C[C@]2(C)[C@@]1(O)C(=O)CO [BECLOMETHASONE] | Not Active | Not Active | Not Active | Not Active | Not Active | Not Active | Not Active | Not Active | Not Active | Not Active | Not Active |  |  |  |  |
| Cc1cc(=O)n(-c2ccccc2)n1C [ANTIPYRINE] | Not Active | Not Active | Not Active | Not Active | Not Active | Not Active | Not Active | Not Active | Not Active | Not Active | Not Active |  |  |  |  |
| COc1cccc2c1C(=O)c1c(O)c3c(c(O)c1C2=O)C[C@@](O)(C(=O)CO)C[C@@H]3O[C@H]1C[C@H](N)[C@@H](O)[C@H](C)O1 [EPIRUBICIN] | Not Active | Not Active | Not Active | Not Active | Not Active | Not Active | Not Active | Not Active | Not Active | Not Active | Not Active |  |  |  |  |
| C[C@](O)(CS(=O)(=O)c1ccc(F)cc1)C(=O)Nc1ccc(C#N)c(C(F)(F)F)c1 [(R)-BICALUTAMIDE] | Not Active | Not Active | Not Active | Not Active | Not Active | Not Active | Not Active | Not Active | Not Active | Not Active | Not Active |  |  |  |  |
| COc1ccc2c(c1)[C@]13CCCC[C@@H]1[C@H](C2)N(C)CC3 [DEXTROMETHORPHAN] | Not Active | Not Active | Not Active | Not Active | Not Active | Not Active | Not Active | Not Active | Not Active | Not Active | Not Active |  |  |  |  |
| COP(=O)(OC)OC=C(Cl)Cl [DICHLORVOS] | Not Active | Not Active | Not Active | Not Active | Not Active | Not Active | Not Active | Not Active | Not Active | Not Active | Not Active |  |  |  |  |
| CCN[C@@H]1C[C@H](N)[C@@H](O[C@H]2OC(CN)=CC[C@H]2N)[C@H](O)[C@H]1O[C@H]1OC[C@](C)(O)[C@H](NC)[C@H]1O [NETILMICIN] | Not Active | Not Active | Not Active | Not Active | Not Active | Not Active | Not Active | Not Active | Not Active | Not Active | Not Active |  |  |  |  |
